# Assay results: a melting point compilation (Tetko et al.; mined from patent text by program, amines drawn as free bases though some values may be those of a salt)
row,melting point,Compound
1,114 to 118 °C,CC(=O)SCCN(CCc1ccccc1)C(=O)N[C@@H](Cc1ccc([N+](=O)[O-])cc1)C(=O)NCCC(=O)O
2,121 to 122 °C,COc1ccc(CCN2CCc3cc(OC[C@H]4CO[C@](Cn5ccnc5)(c5ccc(Cl)cc5Cl)O4)ccc3C2)cc1 (racemic)
3,154 to 158 °C,CCOC(OCC)c1c(C#N)cnn1-c1cc(SC)n(C)n1
4,219 to 220 °C,CCCCc1ncc(C=C2C(=O)Nc3ccccc32)n1Cc1ccc(C(=O)OC)cc1Cl
5,115 to 119 °C,Cc1cccc(-c2[nH]c(C(C)C)nc2-c2cccc(-c3ccc4c(c3)C(=O)CCS4(=O)=O)c2)n1
6,> 250 °C,Cc1ccc(N)c2c1CCC2=NNC(=N)N
7,< 20 °C,CCOC(=O)C(C)(C)Oc1ccc(-c2ccc(CCNC(C)=O)cc2)cc1
8,179 to 182 °C,c1ccc2cc(Cc3ncc(-c4ccc5cc(OCc6nnn[nH]6)ccc5c4)o3)ccc2c1
9,171 to 173 °C,Cc1cc(N2C=CC(O)CC2)nn2cnnc12 (stereo unspecified)
10,155 to 156 °C,Cc1cc(O)c(C23CC4CC(CC(C4)C2)C3)cc1Br
11,45 to 46 °C,Cc1cc(C(C)(C)CBr)c(C)nn1
12,228 to 229 °C,NCc1cccc(-c2csc(N=C(N)N)n2)n1
13,60 to 62 °C,CC(CBr)(CBr)C(=O)O
14,268 °C,CC(=O)Nc1ccc2c(c1)N1CCN=C1S2
15,160 to 161 °C,CCOc1nn(Cc2ccnc(OCc3cn4c(Cl)cccc4n3)c2)cc1CCC(=O)O
16,165 to 166 °C,CCCC(CCC)C(=O)O[C@H]1C[C@H](O)C=C2C=C[C@H](C)[C@H](CC[C@@H]3C[C@@H](O)CC(=O)O3)[C@H]21
17,60 to 62 °C,Nc1sc2c(c1C(=O)c1ccc(Cl)cc1)CCC(Cc1ccccc1)C2 (stereo unspecified)
18,127 to 129 °C,CCOC(=O)C(C#N)=Cc1c(OC)nc2c(C)cccn12
19,226 to 228 °C,Cc1ccc2sc3nncn3c2c1C
20,78 to 81 °C,Fc1ccc(C(c2ccncc2)C2CCCCC2)cc1 (stereo unspecified)
21,185 to 186 °C,Nc1c(-c2ccc(-c3nnco3)cc2)nnn1-c1ccc(C(F)(F)F)cc1F
22,200 °C,Cn1cc2c(=O)[nH]c(=S)[nH]c2n1
23,237 °C,CNC(=S)NC1=NN(c2ccc(Cl)cc2)CC1

row,melting point,Compound
1,108 °C,[O-][N+](=Cc1ccc(OCc2ccccc2)cc1)C1CCCCCCC1
2,78 to 79 °C,COc1cc(OCCBr)ccc1C=O
3,141 to 142 °C,CC(=O)OCCCc1cccc(-c2nc(=O)c3ccccc3s2)n1
4,144 to 147 °C,CS(=O)(=O)Nn1c(=O)[nH]c2cc(C(F)(F)F)c(-n3cnc(C(F)(F)F)c3)cc2c1=O
5,180 to 184 °C,ClC(Cl)(Cl)c1cc(-c2ccccc2)c2ccc3c(-c4ccccc4)cc(C(Cl)(Cl)Cl)nc3c2n1
6,235 to 237 °C,CN(Cc1ccc(NC(=O)C2=Cc3cc(-c4ccc(Cl)c(Cl)c4)ccc3S(=O)(=O)CC2)cc1)C1CCOCC1
7,132 to 134 °C,COC(=O)c1ccc(NC(=O)c2ccccc2-c2ccccc2)cc1Cl
8,114 to 117 °C,CCn1cc(C2(c3ccc(F)c(-c4cccnc4F)c3)N=C(N)N(C)C2=O)cc1C(=O)OC (stereo unspecified)
9,95 to 97 °C,CCSc1c[nH]nc1C1=CCCN(C)C1
10,192 to 194 °C,CCCn1c(=O)c2c(nc(C=Cc3cc(OC)c(OC)cc3S(=O)(=O)O)n2C)n(CCC)c1=O
11,163 °C,CC(=O)NCCN1CCc2cc(NC(=O)c3ccccc3-c3ccc(C(F)(F)F)cc3)ccc2C1
12,224 to 225 °C,Cc1cc2nc(C3(c4ccc(S(N)(=O)=O)cc4)C=C(C(F)(F)F)NN3)sc2cc1F (stereo unspecified)
13,96 to 98 °C,O=C(NCCc1ccc(O)cc1)OCc1ccccc1
14,159 to 160 °C,COc1ccc2c(c1)c(CC(=O)O[C@H]1CO[C@H]3[C@H]1OC[C@H]3O[N+](=O)[O-])c(C)n2C(=O)c1ccc(Cl)cc1
15,125 to 126 °C,CC(=O)Nc1ccc(-c2ccc(C(O)CCC(=O)O)cc2)cc1Br (stereo unspecified)
16,54 °C,C#CCCc1c(C)c(OC)c(C)c(C)c1OC
17,178 to 180 °C,NC(=O)c1cc(NCc2cccc(Cl)c2)c([N+](=O)[O-])cc1[N+](=O)[O-]
18,169 to 172 °C,O=C1C(CBr)=C(CBr)C(=O)C(CBr)=C1CBr
19,56 to 57 °C,CC(C)OC(=O)COc1ccc(CCNS(=O)(=O)c2ccccc2)cc1
20,173 °C,N#CCN1C(=O)COc2ccc([N+](=O)[O-])cc21
21,225 to 228 °C,COc1ccc(C)cc1NC(=O)Nc1ccc(N2CCN(C(=O)Nc3ccc(OCCO)cc3C(F)(F)F)CC2)c(C)c1
22,123 to 124 °C,COc1nnc(C)c(-c2ccc(Cl)nc2)c1-c1c(F)cc(F)cc1F
23,49 to 50 °C,CCOC(=O)COc1c(OC2CCCCO2)cccc1[N+](=O)[O-] (stereo unspecified)

row,melting point,Compound
1,127 to 129 °C,CCNc1ncccc1-c1cscc1-c1cccnc1F
2,107 to 108 °C,O=C1CCCCC1C(C[N+](=O)[O-])c1ccccc1Cl (racemic)
3,218 °C,COC(=O)c1cc(C(=O)c2ncc3ccccn23)ccc1NC(=O)c1ccccc1
4,141 to 142 °C,CCC(CC)(CC(=O)Nc1ccc2ccc(OCc3ccc4cccc(F)c4n3)cc2c1)C(=O)O
5,208 to 212 °C,CC(C)OC(=O)N1CC(=S)Nc2ccc(-c3cccc(Cl)c3)cc21
6,142 to 144 °C,NC(=O)c1csc(C2OC(CO)C(O)C2O)n1 (stereo unspecified)
7,176 to 178 °C,CCCC(O)(CCC)c1ccc(Cl)c2nc3n(c12)CCCN3c1c(C)cc(Cl)cc1Cl
8,206 to 208 °C,c1ccc2c(c1)Oc1ccccc1-n1nnnc1-2
9,70 to 72 °C,COc1cc(C)c(N)c(C)c1C
10,196 to 198 °C,O=C(NCc1ccc(O)cc1)C12CC3CC(CC(C3)C1)C2
11,205 °C,Cc1cc(C)nc(N2CC=C(N)N2)n1
12,200 °C,N#Cc1ccc([C@@H]2CN(Cc3ccccc3)C[C@@]23NC(=O)N(c2cc(Cl)cc(Cl)c2)C3=O)cc1 (relative stereo)
13,98 to 99 °C,CCCSc1ncc(CCCC(=O)O)n1Cc1ccccc1Cl
14,349 to 351 °C,N#Cc1ccc2nc3sc(-c4ccccc4)cc3c(=O)n2c1
15,67 to 71 °C,COc1ccc2nc(NC(=O)C(CC3CCCC3)c3ccc(S(=O)(=O)CC(C)=O)cc3)sc2n1 (stereo unspecified)
16,130 to 133 °C,CC(C(=O)NCCN(C)C)n1c(-c2ccc(Cl)cc2)nc2cccnc21 (stereo unspecified)
17,84.5 to 87.5 °C,CC1CC(=O)N(c2ccc(F)cc2)C(=S)C1 (stereo unspecified)
18,171 to 172 °C,Cn1nc2ccc(NCCCN3CCC(OC(c4ccccc4)c4ccccc4)CC3)nn2c1=O
19,235 to 236 °C,C[C@@H](n1cnc2cc(C(N)=O)ccc2c1=O)[C@](O)(Cn1cncn1)c1ccc(F)cc1F
20,130 to 133 °C,CC(=O)c1cccc(Nc2nnc(-c3cccc(Oc4cccc(C(F)(F)F)c4)c3)s2)c1
21,150 to 152 °C,Cc1nn(-c2cc(OS(C)(=O)=O)c(Cl)cc2F)c(C)c1[N+](=O)[O-]
22,106 to 107 °C,COC(=O)CCCCCCc1nc(C)sc1C(=O)O

row,Compound,melting point
1,CN1CCC(c2c[nH]c3ccc(N)cc23)C(F)C1 (stereo unspecified),105 to 107 °C
2,COc1ccc(CCN(C)C)c2nn[nH]c12,176 to 180 °C
3,C[C@H]1N=C(c2ccccc2F)c2cc([N+](=O)[O-])ccc2NC1=O,120 °C
